This experiment has as its system FVIII-specific T cell hybridomas (peptides presented by HLA-DRB1*1501). Kind of experiment: Peptide specificity of FVIII-specific T cell hybridomas (IL-2 release). It is filed as cell-based, mouse. To be noted: during Factor VIII replacement therapy or connected with acquired hemophilia. The text has this:
To better mimic the human MHC class II molecule for identifying FVIII peptides, a mouse model was developed for hemophilia A with a chimeric MHC class II molecule carrying a human HLA-DRB1*1501 specific binding site. This mouse was backcrossed to a mouse carrying a complete knock out of all murine MHC class II genes (Reipert et al., J. Thromb. Haemost. 7 Suppl. 1:92-97 (2009)). In this new transgenic mouse model, all CD4^+ T cell responses are driven by the human MHC class II molecule. This mouse model was used to identify FVIII peptides presented by HLA-DRB1*1501 that drive anti-FVIII immune responses in these mice.
Hemophilic HLA-DRB15 E17 mice: HLA-DRB1*1501^+/− E17^−/− mice as described in Reipert et al., J. Thromb. Haemost. 7 Suppl. 1:92-97 (2009). Mice were all male and aged 8 to 12 weeks at the beginning of the experiment.
Immunization with human recombinant FVIII: HLA-DRB1*1501^+/− E17^−/− mice received between 4 and 8 intravenous or subcutaneous doses of 0.2 μg or 1 μg human rFVIII at weekly intervals. rFVIII was diluted in the original formulation buffer or Dulbecco phosphate buffered saline containing calcium and magnesium (DPBS; Sigma Aldrich, St. Louis, Mo., USA).
Cell preparation: Spleens were obtained 3 to 7 days after the last immunization with rFVIII. Spleen cells were minced and passed through a 70 μm cell strainer (Becton Dickinson, Franklin Lakes, N.J.). Single cells were collected in culture medium: RPMI 1640 medium (Gibco, Invitrogen, Life Technologies, Carlsbad, Calif.) supplemented with 10% preselected fetal calf serum (FCS; Hyclone, Logan, Utah), 2 mM L-glutamine, 100 U/mL penicillin/streptomycin (both from Gibco), and 5×10^−5 M mercaptoethanol (Sigma-Aldrich). Erythrocytes were lysed using hypotonic buffer (pH 7.2) composed of 0.15 M ammonium chloride, 10 mM potassium bicarbonate (both from Merck, Darmstadt, Germany) and 0.1 mM ethylene-diaminetetraacetic acid (Sigma-Aldrich). Cells were washed and counted using a Coulter Counter Z1. […]

As for “TVVITLKNMASHPVSLHAVGV (listed as Homo sapiens) [FVIII^102-122]”, the “involvement in the immune response mounted against FVIII protein” value (shortened to “involvement”) was “involved in the immune response”.

Take “QANRSPLPIAKVSSFPSIRPIYLT (listed as Homo sapiens) [FVIII^1401-1424]”: the “involvement” value is given as “involved in the immune response”.

On to “AWPKMHTVNGYVNRSLPGLIG (listed as Homo sapiens) [FVIII^246-266]”, for which the “involvement” value is “involved in the immune response”.

The values are drawn from patent US8969524B2, “FVIII peptides for immune tolerance induction and immunodiagnostics” (Baxter International Inc., priority 2010, dated 2015).
